Results reported in US10149839B2, “Chemical compounds” (AstraZeneca AB, priority 2016, dated 2018).
In brackets after ≈: the same amount, converted by molar mass.

Legend:
[1] = Thermodynamic solubility (shake flask); format: physicochemical; details: aqueous phosphate buffer, 25 °C, pH 7.4, aqueous buffer, thermodynamic from solid, aqueous phosphate buffer pH 7.4, 24 hours
physchem = details: 1-octanol/aqueous buffer, pH 7.4
[2] = target: T1, Estrogen Receptor (ERα) in MCF-7 cells (Homo sapiens (Human), UniProt P03372); experiment: Western blotting assay, MCF-7 cells; format: cell-based; details: compound 100 nM, 48 h, normalised to 100 nM fulvestrant (100%)
T1 sequence (P03372 whole entry): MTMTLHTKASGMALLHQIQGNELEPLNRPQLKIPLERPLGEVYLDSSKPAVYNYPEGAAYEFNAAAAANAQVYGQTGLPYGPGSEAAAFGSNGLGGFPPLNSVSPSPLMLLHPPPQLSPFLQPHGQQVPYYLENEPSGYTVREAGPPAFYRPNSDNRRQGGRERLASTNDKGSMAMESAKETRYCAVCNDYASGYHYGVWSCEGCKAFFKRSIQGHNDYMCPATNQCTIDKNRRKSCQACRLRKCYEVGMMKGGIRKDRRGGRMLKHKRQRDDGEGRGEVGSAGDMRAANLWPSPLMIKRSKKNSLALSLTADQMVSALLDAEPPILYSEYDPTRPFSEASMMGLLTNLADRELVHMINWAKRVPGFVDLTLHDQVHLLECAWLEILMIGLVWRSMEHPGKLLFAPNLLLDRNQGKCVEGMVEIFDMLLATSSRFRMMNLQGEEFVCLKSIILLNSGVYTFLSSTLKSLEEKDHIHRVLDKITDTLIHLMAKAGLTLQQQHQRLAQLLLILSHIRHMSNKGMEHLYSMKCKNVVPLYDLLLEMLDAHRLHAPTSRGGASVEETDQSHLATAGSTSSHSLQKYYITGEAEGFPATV

[3] = target: T1, Estrogen Receptor (ERα) in MCF-7 cells; experiment: MCF-7 ER down-regulation assay (immuno-fluorescence); format: cell-based; details: for IC50: 18-22 hours incubation
[4] = target: estrogen receptor (ERα) in CAMA-1 cells (Homo sapiens (Human), UniProt P03372); experiment: Western blotting assay, CAMA-1 cells; format: cell-based; details: compound 100 nM, 48 h, normalised to 100 nM fulvestrant (100%)
Chain of estrogen receptor (ERα) in CAMA-1 cells (P03372 whole entry): as above

[5] = Human plasma protein binding (equilibrium dialysis); format: in vitro ADME; details: dialysis 18 hours

| solubility at 24 h [1] [µM] | logD (physchem) | MCF7 Western % ER deg vs Fv [2] [%] | IC50 [3] [nM] | CAMA1 Western % ER deg vs Fv [4] [%] | Human plasma protein binding (% free) [5] [% free] | % downregulation ([3]; shown in brackets where not >90%) | SMILES |
| --- | --- | --- | --- | --- | --- | --- | --- |
| 4 (≈ 2.04 µg/mL) | > 4.3 | 64 | 0.14 | 0 | <2.6 |  | C[C@@H]1Cc2c([nH]c3ccccc23)[C@@H](c2c(F)cc(OCCNCCC(F)F)cc2F)N1CC(C)(C)F [Example 3, N-(2-(3,5-difluoro-4-((1R,3R)-2-(2-fluoro-2-methylpropyl)-3-methyl-2,3,4,9-tetrahydro-1H-pyrido[3,4-b]indol-1-yl)phenoxy)ethyl)-3,3-difluoropropan-1-amine] |
| > 1000 | 2.3 | 74 | 0.51 | 48 | 17 |  | COc1cc(OCCNCCCF)ncc1[C@@H]1c2[nH]c3ccccc3c2C[C@@H](C)N1CC1(F)COC1 [Example 7, 3-fluoro-N-(2-((5-((1R,3R)-2-((3-fluorooxetan-3-yl)methyl)-3-methyl-2,3,4,9-tetrahydro-1H-pyrido[3,4-b]indol-1-yl)-4-methoxypyridin-2-yl)oxy)ethyl)propan-1-amine] |
|  |  | 77 |  | 38 |  |  | COc1cc(OCCNCCCF)ccc1[C@@H]1c2[nH]c3ccccc3c2C[C@@H](C)N1CC1(F)COC1 [Example 8, 3-fluoro-N-(2-(4-((1R,3R)-2-((3-fluorooxetan-3-yl)methyl)-3-methyl-2,3,4,9-tetrahydro-1H-pyrido[3,4-b]indol-1-yl)-3-methoxyphenoxy)ethyl)propan-1-amine] |
|  |  | 82 | 0.22 | 80 |  |  | C[C@@H]1Cc2c([nH]c3ccccc23)[C@@H](c2c(F)cc(NCCNCCCF)cc2F)N1CC1(F)CC1 [Example 9, N^1-(3,5-difluoro-4-((1R,3R)-2-((1-fluorocyclopropyl)methyl)-3-methyl-2,3,4,9-tetrahydro-1H-pyrido[3,4-b]indol-1-yl)phenyl)-N^2-(3-fluoropropyl)ethane-1,2-diamine] |
|  |  | 81 | 0.46 | 54 |  |  | COc1cc(OCCNCCCF)ccc1[C@@H]1c2[nH]c3ccccc3c2C[C@@H](C)N1CC1(F)CC1 [Example 11, 3-fluoro-N-(2-(4-((1R,3R)-2-((1-fluorocyclopropyl)methyl)-3-methyl-2,3,4,9-tetrahydro-1H-pyrido[3,4-b]indol-1-yl)-3-methoxyphenoxy)ethyl)propan-1-amine] |
| 10 (≈ 5.26 µg/mL) | 3.6 | 61 | 0.64 | 31 | 0.9 | (89%) | COCC(F)(F)CN1[C@H](c2c(F)cc(OCCNCCCF)cc2F)c2[nH]c3ccccc3c2C[C@H]1C [Example 14, N-(2-(4-((1R,3R)-2-(2,2-difluoro-3-methoxypropyl)-3-methyl-2,3,4,9-tetrahydro-1H-pyrido[3,4-b]indol-1-yl)-3,5-difluorophenoxy)ethyl)-3-fluoropropan-1-amine] |
| 99 (≈ 48.2 µg/mL) | 3.8 | 81 | 0.28 | 82 | 2.2 |  | COc1cc(OCCNCCCF)cnc1[C@@H]1c2[nH]c3ccccc3c2C[C@@H](C)N1CC(C)(C)F [Example 35, 3-fluoro-N-(2-((6-((1S,3R)-2-(2-fluoro-2-methylpropyl)-3-methyl-2,3,4,9-tetrahydro-1H-pyrido[3,4-b]indol-1-yl)-5-methoxypyridin-3-yl)oxy)ethyl)propan-1-amine] |
| 291 (≈ 142 µg/mL) | 3.5 | 83 | 0.14 | 66 | 2.1 |  | COc1cc(OCCNCCCF)ncc1[C@@H]1c2[nH]c3ccccc3c2C[C@@H](C)N1CC(C)(C)F [Example 36, 3-fluoro-N-(2-((5-((1R,3R)-2-(2-fluoro-2-methylpropyl)-3-methyl-2,3,4,9-tetrahydro-1H-pyrido[3,4-b]indol-1-yl)-4-methoxypyridin-2-yl)oxy)ethyl)propan-1-amine] |
| 227 (≈ 104 µg/mL) | 3.3 | 88 | 0.43 | 75 | 1.3 |  | C[C@@H]1Cc2c([nH]c3ccccc23)[C@@H](c2cnc(OCCNCCCF)cn2)N1CC(C)(C)F [Example 38, 3-fluoro-N-(2-((5-((1S,3R)-2-(2-fluoro-2-methylpropyl)-3-methyl-2,3,4,9-tetrahydro-1H-pyrido[3,4-b]indol-1-yl)pyrazin-2-yl)oxy)ethyl)propan-1-amine] |
| 389 (≈ 192 µg/mL) | 3.2 | 74 | 0.14 | 89 | 2.4 |  | COc1cc(OCCNCCCF)ncc1[C@@H]1c2[nH]c3ccccc3c2C[C@@H](C)N1CC(F)(F)F [Example 41, 3-Fluoro-N-(2-((4-methoxy-5-((1R,3R)-3-methyl-2-(2,2,2-trifluoroethyl)-2,3,4,9-tetrahydro-1H-pyrido[3,4-b]indol-1-yl)pyridin-2-yl)oxy)ethyl)propan-1-amine] |
| 220 (≈ 108 µg/mL) | 3.3 | 90 | 0.079 | 76 | 1.6 |  | COc1cc(OCCNCCCF)ncc1[C@@H]1c2[nH]c3ccccc3c2C[C@@H](C)N1CC(C)(F)F [Example 42, N-(2-((5-((1R,3R)-2-(2,2-Difluoropropyl)-3-methyl-2,3,4,9-tetrahydro-1H-pyrido[3,4-b]indol-1-yl)-4-methoxypyridin-2-yl)oxy)ethyl)-3-fluoropropan-1-amine] |
| 577 (≈ 291 µg/mL) | 3.1 | 85 | 0.17 | 90 | 2.3 |  | C[C@@H]1Cc2c([nH]c3ccccc23)[C@@H](c2c(F)cc(NCCNCCCF)cc2F)N1CC1(F)COC1 [Example 44, N1-(3,5-difluoro-4-((1R,3R)-2-((3-fluorooxetan-3-yl)methyl)-3-methyl-2,3,4,9-tetrahydro-1H-pyrido[3,4-b]indol-1-yl)phenyl)-N2-(3-fluoropropyl)ethane-1,2-diamine] |
| 85 (≈ 42.7 µg/mL) | 3.5 | 97 | 0.31 | 72 | 1.0 |  | C[C@@H]1Cc2c([nH]c3ccccc23)[C@@H](c2c(F)cc(N(C)CCNCCCF)cc2F)N1CC1(F)CC1 [Example 45, N1-(3,5-difluoro-4-((1R,3R)-2-((1-fluorocyclopropyl)methyl)-3-methyl-2,3,4,9-tetrahydro-1H-pyrido[3,4-b]indol-1-yl)phenyl)-N2-(3-fluoropropyl)-N1-methylethane-1,2-diamine] |
| 952 (≈ 486 µg/mL) | 2.6 | 88 | 0.093 | 74 | 2.3 |  | C[C@@H]1Cc2c([nH]c3ccccc23)[C@@H](c2c(F)cc(NCCNCCCF)cc2F)N1CC(F)(F)CO [Example 46, 3-((1R,3R)-1-(2,6-difluoro-4-((2-((3-fluoropropyl)amino)ethyl)amino)phenyl)-3-methyl-1,3,4,9-tetrahydro-2H-pyrido[3,4-b]indol-2-yl)-2,2-difluoropropan-1-ol] |
| 94 (≈ 43.6 µg/mL) | 3.4 | 58 | 0.26 | 65 |  |  | C[C@@H]1Cc2c([nH]c3ccccc23)[C@@H](c2ccc(OCCNCCCF)cc2F)N1CC(F)F [Example 48, N-(2-(4-((1R,3R)-2-(2,2-difluoroethyl)-3-methyl-2,3,4,9-tetrahydro-1H-pyrido[3,4-b]indol-1-yl)-3-fluorophenoxy)ethyl)-3-fluoropropan-1-amine] |
| 70 (≈ 34.6 µg/mL) |  | 100 | 0.25 | 95 | 0.40 |  | C[C@@H]1Cc2c([nH]c3ccccc23)[C@@H](c2c(F)cc(N(C)CCNCCCF)cc2F)N1CC(F)F [Example 49, N1-(4-((1R,3R)-2-(2,2-difluoroethyl)-3-methyl-2,3,4,9-tetrahydro-1H-pyrido[3,4-b]indol-1-yl)-3,5-difluorophenyl)-N2-(3-fluoropropyl)-N1-methylethane-1,2-diamine] |
| 242 (≈ 116 µg/mL) |  | 87 | 0.13 | 92 | 1.3 |  | C[C@@H]1Cc2c([nH]c3ccccc23)[C@@H](c2c(F)cc(NCCNCCCF)cc2F)N1CC(F)F [Example 54, N1-(4-((1R,3R)-2-(2,2-difluoroethyl)-3-methyl-2,3,4,9-tetrahydro-1H-pyrido[3,4-b]indol-1-yl)-3,5-difluorophenyl)-N2-(3-fluoropropyl)ethane-1,2-diamine] |
| 184 (≈ 82 µg/mL) | 3.3 | 74 | 0.4 | 66 |  |  | C[C@@H]1Cc2c([nH]c3ccccc23)[C@@H](c2ccc(OCCNCCCF)cc2)N1CC(F)F [Example 56, N-(2-(4-((1R,3R)-2-(2,2-difluoroethyl)-3-methyl-2,3,4,9-tetrahydro-1H-pyrido[3,4-b]indol-1-yl)phenoxy)ethyl)-3-fluoropropan-1-amine] |
